Measured values as given in patent publication US11781984B2, “Fluorescent method to quantify copper or platinum based on catalysis” (University of Pittsburgh—Of the Commonwealth System of …, priority 2018, dated 2023).
Counter-ions that a name gives are not always drawn.

How the values were obtained:
[1] = Depropargylation of PPE with various metals and ligands (combinatorial screen); conditions: Cu^+ and Cu^2+ in the presence of ligand, 1.2 M pH 7.0 phosphate buffer/DMSO
Experimental: All fluorescence measurements were obtained using a Modulus II Microplate Multimode Reader. Fluorescence was measured after exciting samples with 490 nm light and emission was measured between 510-570 nm. All fluorescence measurements were obtained at room temperature. Metals and ligands were combinatorially screened in the presence of Propargyl Pittsburgh Green ether (PPE) to determine which metals and ligands facilitated the depropargylation reaction. Solid AgNO3 and Sr(NO3)2 were dissolved in 5% HNO3 (TraceMetal Grade) to a final concentration of 10 mM. AuCl3, CdCl2, CeCl3, COCl2, CuCl, CuCl2, […]7, FeSO4, FeCl3, HgCl2, MgCl2, KMnO4 NiCl2, Pb(OAc)4, Rh(OAc)2, RhCl3, RuCl3, and ZnCl2 were dissolved in 3% HCl (TraceMetal Grade) to a final concentration of 10 mM. Wilkinson's catalyst, as a source of Rh(I), was dissolved in DMSO to a final concentration of 5 mM. RuCl2(p-cymene) dimer was dissolved in DMSO to a final concentration of 5 mM (10 mM with respect to the monomer). Standard solutions of 1000 ppm Pt^2+ in 3% HCl and 1000 ppm Pd^2+ in 5% HNO3 were used. […] A mixture containing 1.2 M pH 7.0 phosphate buffer (177.2 mL), DMSO (19.42 mL), and 8.0 mM PPE (556 μL) was separated into 37 aliquots. […] These solutions containing the probe and ligand (180 μL), termed working solutions, were transferred to a black 96-well plate. The metal solutions were diluted to 10 μM using ultrapure water as the diluent. […] To analyze the data, each working solution was normalized, with the no metal sample normalized to 1.

[2] = Distribution of copper between water and CHCl3 in the presence of DMAPPP; format: physicochemical; conditions: pH 7 buffer / CHCl3 biphasic system, DMAPPP present vs absent
Experimental: We questioned whether copper ions would be excreted from cells when bound to DMAPPP. As a model system, CuSO4 was suspended in a biphasic system (pH 7 buffer and CHCl3) in the presence or absence of DMAPPP. Three suspensions were prepared from these: 10 mM DMAPPP in CHCl3 (1.0 mL) and 5 mM CuSO4 in 1 mM phosphate pH 7.0 buffer (1.0 mL), CHCl3 (1.0 mL) and 5 mM CuSO4 in 1 mM phosphate pH 7.0 buffer (1.0 mL), and 10 mM DMAPPP in CHCl3 (1.0 mL) and 1 mM phosphate pH 7.0 buffer (1.0 mL). The suspensions were vortexed to ensure proper partitioning of the CuSO4 and DMAPPP. Aliquots of the aqueous and organic layers of each suspension (100 μL each) were then taken and evaporated. The residue following evaporation was resuspended in HBSS (100 μL).
The working solution was prepared by the addition of 50 mM pH 8.5 borate buffer (2.96 mL), EtOH (500 μL), 800 μM PPE in EtOH (100 μL), and 10 mM DMAPPP in DMSO (40 μL). The working solution (180 μL) was transferred to the wells of a black 96-well plate. The resuspended samples (20 μL) were then added to the wells and the fluorescence was measured.

[3] = Deallylation of APE with various metals and ligands (combinatorial screen); conditions: for facilitation of the deallylation of APE: ligand screen with APE
Experimental: In separate vials, 20-30 mg of each ligand was dissolved in DMSO containing 250 ppm butylated hydroxyl toluene (BHT) to a final concentration of 20 mM ligand. Working solutions containing the ligands were prepared by mixing 1.23 M pH 7 phosphate buffer (177.2 mL), DMSO (19.424 mL), and 8.0 mM APE in DMSO (556 μL). Aliquots of this mixture (4.944 mL) were placed into 15 mL conical tubes and 20 mM ligands and 250 ppm BHT in DMSO (55.5 μL) were added. […] Metals used in the experiments included AgNO3, AuCl3, CdCl2.2.5H2O, CeCsl3.3H2O, CoCl2.6H2O, […]7, CuCl, CuCl2.2H2O, FeSO4, FeCl3, HgCl2, MgCl2.6H2O, K2MnO4, NiCl2, Pb(OAc)2, RhCl(PPh3)3, Rh(Oac)2 dimer, […] (45.5% Rh), dichloro(p-cymene)ruthenium(II), RuCl3, Sr(NO3)2, and ZnCl2. In separate vials, 10 mM metal solutions were prepared by mixing 5-20 mg of the listed metals with dilute acid; all metals were dissolved in 3% HCl (TraceMetal Grade), with the exception of AgNO3, Sr(NO3)3, RhCl(PPh3)3, and dichloro(p-cymene)ruthenium(II). AgNO3 and Sr(NO3)3 were dissolved in 5% HNO3 (TraceMetal Grade); RhCl(PPh3)3 and dichloro(p-cymene)ruthenium(II) were dissolved in DMSO and the working solutions were adjusted to account for the solvent. The metal solutions were then diluted to 100 μM in 3% HCl or 5% HNO3 (TraceMetal Grade) or DMSO. […] For Pd, the 9.4 mM standard (21 μL) was added to 5% HNO3 (1.98 mL, TraceMetal Grade). For Pt, the 5.1 mM standard (39 μL) was added to 3% HCl (1.96 mL, TraceMetal Grade). To perform the assay, 10 μM metal solutions (20 μL) were added to the prepared working solutions (180 μL). The fluorescence was measured immediately and again after allowing the reaction to proceed for 1 h and 2 h at 25° C.

[4] = Selectivity of optimized APE/TFPP method for platinum over palladium; conditions: optimized salts, pH and TFPP concentration; 10 μM metals, 20 μM APE, 200 μM TFPP, pH 7.8
Experimental: FIG. 21: Relative reactivities of metals (10 μM) to APE with TFPP. 20 μM APE, 200 μM TFPP, pH 7.8, 25° C., 10 min, n=3.
Increased temperatures accelerated the deallylation, opening an avenue for even lower detection limits if necessary.

[5] = Reactivity of platinum drugs after pre-incubation with LiCl or NaCl; conditions: 10 μM drug, 50 mM LiCl or NaCl, 20 μM APE, 400 μM TFPP, 25° C., 100 min
Experimental: We pre-incubated the drugs with either LiCl or NaCl before adding APE and TFPP.0 or 100 μM cisplatin, carboplatin, or oxaliplatin in DMSO (100 μL) were added to centrifuge tubes. To these tubes, 0 or 1 M LiCl or NaCl in water (100 μL) was added. The solutions were then allowed to incubate at room temperature for 4 h. The working solution was made by the addition of 1.2 M phosphate pH 7.8 buffer (8.86 mL), DMSO (721 μL), 800 μM APE in DMSO (278 μL), and 20 mM TFPP in 250 ppm BHT in DMSO (111 μL). The working solution (180 μL) was then transferred to the wells of a black 96-well plate. The platinum drugs (20 μL) were then transferred to the wells and the fluorescence was measured every 5 min for 100 min.

[6] = Reactivity of strongly-ligated platinum drugs with APE and TFPP; conditions: 10 μM drug, 45° C., 1 h
Experimental: We incubated carboplatin and oxaliplatin with APE and TFPP. […] Carboplatin and oxaliplatin were dissolved in DMSO. The solutions were diluted to a concentration of 100 μM in DMSO. 100 μM platinum drugs in DMSO or water (20 μL) were transferred to the wells of a black 96-well plate. The working solution was prepared by the addition of 1.2 M phosphate pH 7.8 buffer (17.60 mL), DMSO (1.43 mL), 800 μM APE in DMSO (550 μL), and 40 mM TFPP in 250 ppm BHT in DMSO (220 μL). The working solution (180 μL) was then transferred to the wells and the initial fluorescence was measured. The plate was then covered and allowed to incubate in a 45° C. oven for 1 h before the fluorescence was measured again.

[7] = Detection of platinum in different oxidation states (APE/TFPP); conditions: APE and TFPP, 25° C.
Experimental: To determine whether our method depends on the oxidation state of platinum, we incubated the solution of APE and TFPP with a platinum(II) standard, K2PtCl4, K2PtCl6, or cisplatin for 10 min. Cisplatin (6.1 mg; 20 μmol) was dissolved in DMSO and diluted to a concentration of 10 μM. K2PtCl4 (5.6 mg; 13 μmol) and K2PtCl6 (6.8 mg; 14 μmol) were dissolved in water to a concentration of 10 μM. The Pt standard was diluted with ultrapure water to a concentration of 10 μM. The working solution was prepared by adding 1.2 M pH 7 phosphate buffer (8.86 mL), 800 μM APE in DMSO (278 μL), 20 mM TFPP and 250 ppm BHT in DMSO (111 μL), and DMSO (721 μL) in a 15-mL conical tube. The working solution (180 μL) and the Pt solutions (20 μL) were transferred in this order to black round-bottom 96-well plates. The reaction mixture was incubated at 25° C. for 1 h before the fluorescence was measured and reported. Average values and standard deviations are shown in FIG. 23 and “no Pt” is normalized to 1.

HeLa cells = assay: Fluorescence imaging of platinum in live HeLa cells; format: cell-based; conditions: 1 μM APE, 200 μM TFPP, 1 mM K2PtCl4, 20 min
Experimental: We then applied this method for cellular imaging. HeLa cells were seeded in 35-mm dishes and were incubated overnight in an incubator (37° C., 5% CO2 atmosphere) in DMEM supplemented with 10% bovine calf serum and 1% penicillin/streptomycin. Cells were loaded with APE and TFPP to a final concentration of 1 μM and 200 μM, respectively, in 1% DMSO in DMEM for 20 min. Following this, cells were washed twice with ˜2 mL HBSS. HBSS was used as the imaging medium. Brightfield images were taken, as well as the initial fluorescence image. Immediately after taking the first fluorescence image, a solution of K2PtCl4 in PBS was added to a final concentration of 1 mM.
Cellular images were taken using an Olympus IX81 microscope with a 10× objective. Brightfield images were taken using a 3 ms exposure. Fluorescence images were taken as a time series, with an image taken every 30 s for 20 min, using an 850 ms exposure. Images were processed using ImageJ software; background fluorescence was removed from the fluorescence images using a rolling ball radius of 50.0 pixels.

[8] = Pt^2+ and APE in the presence of ligand

For `O=S(=O)([O-])c1cccc(P(c2ccccc2)c2ccccc2)c1.[Na+]` [Compound 2, 3-(diphenylphosphino)bezenesulfonic acid sodium salt], the “fluorescence signals (depropargylation of PPE)” value (from here on “fluorescence signals”) [1] was “significantly increased the fluorescence signals”.
In the case of `CN(C)c1ccc(P(c2ccccc2)c2ccccc2)cc1` [Compound 9, 4-(dimethylamino)phenyl-diphenylphosphine], the “fluorescence signals” value [1] was “greatly increased the fluorescence signals” and the “copper concentration in the organic phase” value [2] was “did not increase”.
In the case of `O=S(=O)(O)c1cccc(P(c2cc(C(F)(F)F)cc(C(F)(F)F)c2)c2cccc(S(=O)(=O)O)c2)c1` [Compound 12, bis(3-sulfonatophenyl)(3,5-di-trifluoromethylphenyl)phosphine disodium salt], the “facilitation of the deallylation of APE” value [3] was “facilitated the deallylation”.
For `Fc1ccc(P(c2ccc(F)cc2)c2ccc(F)cc2)cc1` [Compound 13, tris(4-fluorophenyl)phosphine], the “rate relative to previously reported Pt-Ph3P catalysis” value ([3]; 200 μM TFPP) was 4 times, the “fluorescence signal relative to background signal” value [3, 8] was 40 fold and the “fluorescence signal relative to the corresponding signal from Pd^2+” value [3, 8] was 10 fold. The “facilitation of the deallylation of APE” value [3] was “facilitated the deallylation” and the “selectivity for platinum over palladium” value [4] was 14 times.
With `COc1ccc(P(c2ccc(OC)cc2)c2ccc(OC)cc2)cc1` [Compound 15, tris(4-methoxyphenyl)phosphine] the “fluorescence signals” value [1] was “significantly increased the fluorescence signals” and the “facilitation of the deallylation of APE” value [3] was “did not facilitate the deallylation”.
In the case of `Cc1ccc(P(c2ccc(C)cc2)c2ccc(C)cc2)cc1` [Compound 18, tri-p-tolylphosphine], the “fluorescence signals” value [1] was “significantly increased the fluorescence signals” and the “facilitation of the deallylation of APE” value [3] was “facilitated the deallylation”.
With `FC(F)(F)c1ccc(P(c2ccc(C(F)(F)F)cc2)c2ccc(C(F)(F)F)cc2)cc1` [Compound 19, tris(4-trifluoromethylphenyl)phosphine] the “facilitation of the deallylation of APE” value [3] was “did not facilitate the deallylation”.
With `c1ccc(P(c2ccccc2)c2ccccc2)cc1` [Compound 34, triphenylphosphine] the “fluorescence signals” value [1] was “significantly increased the fluorescence signals”.
With `N.N.O=C([O-])C1(C(=O)[O-])CCC1.[Pt+2]` [carboplatin] the “effect of pre-incubation with LiCl or NaCl on detection” value (shortened to “effect of pre-incubation”) [5] was “increased fluorescence” and the “reaction with APE and TFPP compared to no platinum” value [6] was “little reaction”.
With `N.N.[Cl][Pt][Cl]` [cisplatin] the “effect of pre-incubation” value [5] was “did not improve the detection” and the “reactivity of platinum species (fluorescence signal)” value [7] was “exhibited reactivity, although it was lower than the inorganic species”.
For `O=C1[O][Pt]2([NH][C@@H]3CCCC[C@H]3[NH]2)[O]C1=O` [oxaliplatin], the “effect of pre-incubation” value [5] was “did not improve the detection” and the “reaction with APE and TFPP compared to no platinum” value [6] was “little reaction”.
With allyl Pittsburgh Green ether [APE] the “increase of fluorescence intensity in cells” value (HeLa cells) was 1.5 fold.
